Experimental data as given in patent publication US20230061319A1, “METHODS OF TREATING TUMORS” (CoImmune, Inc., priority 2020, published 2023).

Experiments:
human tumor cell lines [1] = settings: xenografts of human tumor cell lines; cited from earlier work
human tumor cell lines [2] = settings: broad range of human tumor cell lines; cited from earlier work
CMV pp65 specific CTLs [3] = assay: Induction of CMV pp65 specific recall CTLs by PME-CD40L DCs in the presence of mTOR inhibitors; assay type: cell-based, human
Procedure: (§1) 300 x 10^6 peripheral blood mononuclear cells (PBMCs) were cultured in 30 mL AIM-V media (Thermo Fisher Scientific) in T150 flasks (Corning) for 2 hours to provide for the adherence of monocytes. Non-adherent cells were removed by washing the monolayers twice with cold phosphate buffered saline (PBS) (Cambrex), and the remaining monocytes were cultured in X-VIVO 15 medium (Cambrex) for 5 days, supplemented with 1000 U/mL each of granulocyte macrophage-colony stimulating factor (GM-CSF) (Bayer AG, Leukine® liquid) and IL-4 (R&D Systems). To achieve DC maturation, immature DCs were first cultured on day 5 with 10 ng/mL tumor necrosis factor alpha (TNF-α) (R&D Systems), 1000 µ/mL interferon gamma (IFN-y) (Actimmune), and 1 µg/mL prostaglandin E2 (PGE2) (Sigma). On day 6, phenotypically mature DCs were co-electroporated with RNA encoding CD40L (Argos Lot No. 101606 JSC) at a concentration of 3 ug per million DCs plus either human cytomegalovirus (CMV) pp65 or MART-1 encoding RNAs at 2 µg per million DCs (CMVpp65 RNA-Argos Lot No 071107XF, MART-1-APL RNA-Argos Lot No. 011909HC). Generation of MART-1 RNA and CD40L RNA is described in e.g., DeBenedette et al., J. Immunol. 181(8):5296-5305 (2008).
Electroporated DCs were cultured for an additional 4 hours in X-VIVO 15 media supplemented with 800 µ/mL GM-CSF and 500 µ/mL IL-4 at 1 x 10^6 DCs/mL in low adherence 6-well plates (Costar). After 4 hr, the DCs were harvested by washing with cold PBS and prepared as a frozen formulation at 10 x 10^6 DCs/mL in 20% DMSO and 80% FBS, representing antigen electroporated Post Maturation Electroporated (PME)-CD40L DC preparations.
(§2) PME-CD40L DCs derived from HLA-A2-positive donors and transfected with antigen-encoding mRNAs were co-cultured with purified CD8^+ T cells. All co-cultures were performed in R-10 media. CD8^+ T cells were purified using the CD8+ T Cell Negative Selection Kit II (Miltenyi Biotec) from non-adherent cells harvested from the monocyte adherence step. The CD8^+ cells were mixed with DCs at a 10:1 ratio and incubated in the presence of 0.2 µg/mL IL-2 and 10 ng/mL IL-7 (R&D Systems). DC/T cell co-cultures were re-stimulated on day 7 and supplemented with 20 units/mL IL-2 plus 10 ng/mL IL-7. Induction of primary immune responses to MART-1 and memory/recall responses to CMV pp65 were measured on day 10.
(§3) To identify antigen-specific T cell responses and the phenotype of the antigen specific cells, T cells were harvested on day 10 post-stimulation and incubated with peptide-pulsed T2 target cells at a ratio of 10:1 for 4 hour with Brefeldin A, Monensin (BD Biosciences) and CD107a PE-Cy5. […] After 4 hours of co-culture, responder T cells were stained for 10 minutes with the requisite peptide/pentamer reagent, then washed once and re-stained with CD8-Eflour605, CD45RA-FITC, and CD28-APC. Cells were then washed in PBS and stained with Aquadye (BD Biosciences) for analysis of viability. Labeled cells were then fixed and permeabilized in Fixation/Permeabilization solution (eBiosciences). Cells where then stained with IFN-γ-PECy7, TNFa-AF700 and IL-2-PerCPcy5.5 in permeabilization buffer and resuspended in FACs buffer prior to acquisition.
CD8^+ cytotoxic T lymphocyte (CTL) responses were used to measure the pp65 CMV recall response induced by PME-CD40L DCs in the presence of mTOR inhibitors everolimus and temsirolimus. PME-CD40L DCs encoding CMV pp65 were used to stimulate recall CTL responses in the presence of the mTOR inhibitors under evaluation for compatibility with the CMN-001 product. The expansion of recall CTLs specific for CMV pp65 was determined on day 3 after a second weekly stimulation with PME-CD40L DCs.

MART-1 specific CTLs [4] = assay: Priming of MART-1 specific CTLs by PME-CD40L DCs in the presence of mTOR inhibitors; assay type: cell-based, human; settings: in the presence of the mTOR inhibitor, 10 ng/ml to 1 ug/ml
Procedure: as §1, with “Generation of MART-1 RNA and CD40L RNA is described in e.g., DeBenedette et al., J. Immunol. 181(8):5296-5305 (2008).” left out
PME-CD40L DCs derived from HLA-A2-positive donors and transfected with antigen-encoding mRNAs were co-cultured with purified CD8^+ T cells. […] Induction of primary immune responses to MART-1 and memory/recall responses to CMV pp65 were measured on day 10. […]

MART-1 specific CTLs [5] = assay: MART-1 specific CTL effector function (IFN-γ, TNF-α, IL-2 secretion, CD107a expression); assay type: cell-based, human; settings: at the higher concentrations tested; compared to untreated CTLs
Procedure: as §2
as §3, with “Cells where then stained with IFN-γ-PECy7, TNFa-AF700 and IL-2-PerCPcy5.5 in permeabilization buffer and resuspended in FACs buffer prior to acquisition.” left out

CMV pp65 specific CTLs [6] = assay: CMV pp65 specific recall CTL effector function (IFN-γ, TNF-α, IL-2 secretion, CD107a expression); assay type: cell-based, human
Procedure: as §2, §3
To assess the impact mTOR inhibition would have on CTL effector function in vitro, CMV pp65 specific CTLs were assayed for the ability to secret the cytokines IFN-y, TNF-α and IL-2, and express the degranulation marker CD107a, which serves as a surrogate marker to measure lytic activity. Data presented in FIG. 2A and FIG. 2B measures the absolute numbers of CMV […] specific CTLs that secrete IFN-y, TNF-α or IL-2, or express CD107a in response to CMV pp65 peptide pulsed target cells. The absolute numbers of CMV^+ CTLs shown have been corrected for background non-specific responses to display only the antigen specific response for each parameter.

[7] = 10 ng/ml, compared to DC/CTL co-cultures without mTOR inhibitor, day 3 after second weekly stimulation

| Compound | antiproliferative activity in murine tumor xenograft models (human tumor cell lines [1]) | antiproliferative activity in vitro (human tumor cell lines [2]) | numbers of CMV pp65 specific CTLs (CMV pp65 specific CTLs [3]; [7]) | percentage of CMV pp65 specific CTLs (CMV pp65 specific CTLs [3]; [7]) | increase in absolute numbers of CMV+ CTL (CMV pp65 specific CTLs [3]; 1 µg/ml) | increase in percentage of CMV+ CTL (CMV pp65 specific CTLs [3]; 1 µg/ml) | priming of MART-1 specific CTLs by PME-CD40L DC (MART-1 specific CTLs [4]) | numbers of MART-1+ CTL secreting a cytokine or expressing CD107a (MART-1 specific CTLs [5]) | numbers of CMV+ CTL secreting a cytokine or expressing CD107a (CMV pp65 specific CTLs [6]; 10 ng/ml, compared to untreated CTLs) | increase in effector function of CMV+ CTL (CMV pp65 specific CTLs [6]; 1 µg/ml) |
| --- | --- | --- | --- | --- | --- | --- | --- | --- | --- | --- |
| CO[C@H]1C[C@@H]2CC[C@@H](C)[C@@](O)(O2)C(=O)C(=O)N2CCCC[C@H]2C(=O)O[C@H]([C@H](C)C[C@@H]2CC[C@@H](OP(C)(C)=O)[C@H](OC)C2)CC(=O)[C@H](C)/C=C(\C)[C@@H](O)[C@@H](OC)C(=O)[C@H](C)C[C@H](C)/C=C/C=C/C=C/1C [Ridaforolimus, ridaforolimus] | antiproliferative activity | antiproliferative activity | – | – | – | – | – | – | – | – |
| CO[C@H]1C[C@@H]2CC[C@@H](C)[C@@](O)(O2)C(=O)C(=O)N2CCCC[C@H]2C(=O)O[C@H]([C@H](C)C[C@@H]2CC[C@@H](OC(=O)C(C)(CO)CO)[C@H](OC)C2)CC(=O)[C@H](C)/C=C(\C)[C@@H](O)[C@@H](OC)C(=O)[C@H](C)C[C@H](C)/C=C/C=C/C=C/1C [temsirolimus] | – | – | increase | increase | evident | evident | able to prime | increased | increased | maintained |
